We go through eight compounds from ChEMBL document CHEMBL1201862, “PubChem BioAssay data set” (2004).

Some test systems named below: A549; EKVX; HL-60; HOP-62; HT-29; K562; MDA-MB-435; MDA-N; OVCAR-4; RPMI-8226; SF-268; SF-295; SK-MEL-5; SK-OV-3; T47D; UACC-257; UACC-62; UO-31; HOP-92.
Holding throughout (assay): growth of human tumour cells (NCI), 48 h

Structures are written as SMILES.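 The compound was tested at five concentrations on cells cultured in 96-well plates, with a 48-hour exposure period. GI50: concentration for 50% inhibition of growth.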 The source made the active and inactive calls. No stated cut-off is given here; in the data, active = GI50 up to about 1.1 µM and inactive = higher.

Regarding `CCOC(=O)CCC(NC(=O)Cc1ccc(Nc2nc3ccccc3nc2-c2cccs2)cc1)C(=O)OCC` (stereo not given), the GI50 with A549 was 64.1 µM (inactive); in the assay on EKVX, 53.7 µM (inactive); in the assay with HL-60 it was > 100 µM (inactive); with HOP-62, 31.9 µM (inactive); in the assay on HT-29 it was > 100 µM (inactive); in the assay on K562, > 100 µM (inactive). Moreover, the GI50 is 38.1 µM (inactive) in the assay with MDA-MB-435; > 100 µM (inactive) in the assay on MDA-N; 27.4 µM (inactive) in the assay with OVCAR-4; > 100 µM (inactive) in the assay on RPMI-8226; 24 µM (inactive) in the assay on SF-268; 53.2 µM (inactive) in the assay on SF-295. The GI50 is 37.4 µM (inactive) in the assay on SK-MEL-5; 40.8 µM (inactive) with SK-OV-3; 10.9 µM (inactive) in the assay on T47D; 79.3 µM (inactive) with UACC-257; 64.6 µM (inactive) in the assay with UACC-62; > 100 µM (inactive) in the assay with UO-31.

On to `Cc1cc(S(=O)(=O)n2ccnc2O)c(SCCCN(C)C)cc1Cl`, for which the GI50 with A549, with EKVX, with HOP-62, with HT-29, in the assay on K562 and in the assay with MDA-MB-435 was > 100 µM (inactive) in each case. Further, the GI50 with MDA-N, in the assay with OVCAR-4, with SF-268, with SF-295, in the assay with SK-MEL-5 and in the assay with SK-OV-3 was > 100 µM (inactive) each time. Moreover, the GI50 in the assay on T47D, in the assay with UACC-257, in the assay with UACC-62 and in the assay with UO-31 was > 100 µM (inactive) throughout.

For the compound `CC(=O)Nc1ccc2nc(N)n[n+]([O-])c2c1`, the GI50 in the assay on A549, with EKVX, with HL-60, in the assay with HOP-62, with HT-29 and with K562 was > 100 µM (inactive) in each case. The GI50 with MDA-MB-435, in the assay with MDA-N, in the assay on OVCAR-4, in the assay with RPMI-8226, with SF-268 and with SF-295 was > 100 µM (inactive) throughout. The GI50 was > 100 µM (inactive) with SK-MEL-5; > 100 µM (inactive) in the assay with SK-OV-3; 79.8 µM (inactive) in the assay on T47D; > 100 µM (inactive) in the assay with UACC-257; > 100 µM (inactive) in the assay on UACC-62; > 100 µM (inactive) with UO-31.

With `O=C(CSC1=NCCN1)Nc1ccccc1`, the GI50 in the assay on A549 was > 100 µM (inactive); in the assay with EKVX, 45.2 µM (inactive); in the assay on HOP-62, 48 µM (inactive); in the assay with HOP-92 it was 26.8 µM (inactive); in the assay with HT-29, 31.4 µM (inactive); with K562, 40.6 µM (inactive). Also, the GI50 with MDA-MB-435 was 34.8 µM (inactive); in the assay with MDA-N it was 17.7 µM (inactive); with OVCAR-4 it was 65.8 µM (inactive); with RPMI-8226, 41.2 µM (inactive); in the assay on SF-268, 33.3 µM (inactive); with SF-295, 29.4 µM (inactive). In addition, the GI50 in the assay on T47D was 12.9 µM (inactive); in the assay on UACC-257, 17.1 µM (inactive); in the assay on UACC-62 it was 22.1 µM (inactive); with UO-31, 27.4 µM (inactive).

Regarding `CCOC(=O)Cc1c(C(=O)OCC)[n+]([O-])c2cc(Cl)c(Cl)cc2[n+]1[O-]`, the GI50 is 1.76 µM (inactive) with A549; 3.37 µM (inactive) in the assay on EKVX; 2.81 µM (inactive) in the assay with HL-60; 1.95 µM (inactive) with HOP-62; 1.94 µM (inactive) with HT-29; 2.62 µM (inactive) with K562. Also, the GI50 in the assay on MDA-MB-435 is 2.77 µM (inactive); with MDA-N it was 2.62 µM (inactive); in the assay with OVCAR-4, 1.89 µM (inactive); with RPMI-8226, 0.431 µM (active); with SF-268 it was 2.44 µM (inactive); with SF-295 it was 3.66 µM (inactive). The GI50 in the assay on SK-MEL-5 was 1.47 µM (inactive); in the assay with SK-OV-3, 3.77 µM (inactive); with T47D it was 0.982 µM (active); in the assay on UACC-257, 2.22 µM (inactive); in the assay on UACC-62, 2.18 µM (inactive); in the assay with UO-31, 1.77 µM (inactive).

`[O-][S+](Nc1ccccc1)c1ccc(-c2ccccc2)cc1` (stereo not given): the GI50 in the assay on A549, with EKVX, in the assay with HL-60, in the assay with HOP-62, with HT-29 and with K562 was > 100 µM (inactive) each time. Also, the GI50 is > 100 µM (inactive) in the assay on MDA-MB-435; > 100 µM (inactive) in the assay on MDA-N; 38.1 µM (inactive) in the assay on OVCAR-4; > 100 µM (inactive) in the assay with RPMI-8226; > 100 µM (inactive) in the assay with SF-268; 55.8 µM (inactive) with SF-295. Further, the GI50 in the assay with SK-MEL-5 is > 100 µM (inactive); with T47D, 11.5 µM (inactive); in the assay on UACC-257 it was > 100 µM (inactive); with UACC-62 it was 47.4 µM (inactive); with UO-31, > 100 µM (inactive).

For the compound `O=C(c1cccs1)N(C(=O)N1CCCCC1)c1ccccc1`, the GI50 in the assay with EKVX was 14.8 µM (inactive); with HL-60 it was > 100 µM (inactive); with HT-29 it was > 100 µM (inactive); in the assay with K562, > 100 µM (inactive); with MDA-MB-435 it was > 100 µM (inactive); in the assay with MDA-N, > 100 µM (inactive). The GI50 in the assay with RPMI-8226, in the assay with SF-268, with SF-295, in the assay on SK-MEL-5, in the assay with SK-OV-3 and in the assay on T47D was > 100 µM (inactive) throughout. Moreover, the GI50 with UACC-257 was > 100 µM (inactive); with UACC-62, > 100 µM (inactive); in the assay with UO-31, 62.8 µM (inactive).

On to `CC(=O)O[C@H]1C(=O)[C@@]2(C)[C@H]([C@H](OC(=O)c3ccccc3)[C@]3(O)C[C@H](OC(=O)[C@H](O)[C@@H](NC(=O)c4ccco4)c4ccccc4)C(C)=C1C3(C)C)[C@]1(OC(C)=O)CO[C@@H]1C[C@@H]2O`, for which the GI50 in the assay on A549 was < 0.00125 µM (active); with EKVX, 0.0112 µM (active); in the assay on HL-60, < 0.00125 µM (active); in the assay on HOP-62 it was < 0.00125 µM (active); in the assay with HT-29, < 0.00125 µM (active); with K562, < 0.00125 µM (active). The GI50 in the assay with MDA-MB-435 is < 0.00125 µM (active); in the assay on MDA-N, < 0.00125 µM (active); in the assay on OVCAR-4, > 10.7 µM (inactive); with RPMI-8226, < 0.00125 µM (active); in the assay with SF-268, 0.00162 µM (active); with SF-295 it was 0.00624 µM (active). Further, the GI50 in the assay on SK-MEL-5 was < 0.00125 µM (active); with SK-OV-3, < 0.00125 µM (active); in the assay with T47D, < 0.00125 µM (active); with UACC-62, < 0.00125 µM (active); in the assay on UO-31, 0.627 µM (active).
